# Laboratory results published in patent US20060189679A1, “C10 cyclopropyl ester substituted taxane compositions” (priority 2005, published 2006).
# Values joined by “and” are separate entries in the source; they are usually repeats but may differ in a detail not shown here. Equal entries are not always repeated. Where two headings read alike, the source gives them in different places.
# How the values were obtained:
# [1] = test system: HT-29 colon carcinoma cells; assay: In vitro cytotoxic activity (MTT, 72 hr); assay type: cell-based, human; details: unit not given (dilutions in nM), read-out: In Vitro Antitumor Activity (IC50)
# [2] = Toxicity profile on oral and IV dosing in rats; details: dosed both orally and IV
# [3] = test system: PANC-1 pancreatic adenocarcinoma cells; assay: In vitro cytotoxic activity (MTT, 72 hr); assay type: cell-based, human; details: unit not given (dilutions in nM), read-out: In Vitro Antitumor Activity (IC50)
# [4] = test system: LnCaP prostate carcinoma cells; assay: In vitro cytotoxic activity (MTT, 72 hr); assay type: cell-based, human; details: unit not given (dilutions in nM), read-out: In Vitro Antitumor Activity (IC50)
# [5] = test system: 786-0 human renal carcinoma xenografts; details: for Median survival / Median survival Ratio: iv
# [6] = test system: SW480 human colon carcinoma xenografts; details: mouse, in vivo; for controlling tumor growth compared to the lower doses of compound 3102: iv
# [7] = test system: DLD-1 multi-drug resistant human colon carcinoma xenografts; details: for MDS to 2.0 g ± SEM (n): DLD1-e07 study; for antitumor activity: DLD e07, optimum dose, route (IV) and schedule; for # Death NTR (Non-Treatment Related) / # Death TR (Treatment Related): mouse, in vivo
# [8] = test system: DLD-1 resistant colon carcinoma cells (overexpresses p-glycoprotein); assay: In vitro cytotoxic activity (MTT, 72 hr); assay type: cell-based, human; details: DLD-1, colon, p-glycoprotein resistance, unit not given (dilutions in nM), read-out: In Vitro Antitumor Activity (IC50)
# [9] = test system: 1A9 ovarian carcinoma cells; assay: In vitro cytotoxic activity (MTT, 72 hr); assay type: cell-based, human; details: unit not given (dilutions in nM), read-out: In Vitro Antitumor Activity (IC50)
# [10] = test system: 1A9-PTX22 paclitaxel resistant ovarian carcinoma cells (tubulin mutation); assay: In vitro cytotoxic activity (MTT, 72 hr); assay type: cell-based, human; details: for IC50: 1A9-PTX22, ovarian, tubulin mutation, MTT 72 hr, unit not given (dilutions in nM), read-out: In Vitro Antitumor Activity (IC50)
# [11] = test system: 1A9-PTX10 paclitaxel resistant ovarian carcinoma cells (tubulin mutation); assay: In vitro cytotoxic activity (MTT, 72 hr); assay type: cell-based, human; details: for IC50: 1A9-PTX10, ovarian, tubulin mutation, MTT 72 hr, unit not given (dilutions in nM), read-out: In Vitro Antitumor Activity (IC50)
# [12] = test system: HCT116 human colon carcinoma cells; assay: Cell cycle and apoptotic analyses (propidium iodide flow cytometry); assay type: cell-based; details: HCT-116 cells, 24 hr exposure
# [13] = test system: PC-3 prostate carcinoma cells; assay: In vitro cytotoxic activity (MTT, 72 hr); assay type: cell-based, human; details: unit not given (dilutions in nM), read-out: In Vitro Antitumor Activity (IC50)
# [14] = test system: HCT-116 colon carcinoma cells; assay: In vitro cytotoxic activity (MTT, 72 hr); assay type: cell-based, human; details: unit not given (dilutions in nM), read-out: In Vitro Antitumor Activity (IC50)
# [15] = Homo sapiens, Ovarian carcinoma cell
# [16] = IV QWK × 3 25 mg/kg vs 5% EC in Saline PO Q4D × 4
# [17] = IV QWK × 3 30 mg/kg vs 5% EC in Saline PO Q4D × 4
compound,measurement,setting,value
CC(=O)O[C@@]12CO[C@@H]1C[C@H](O)[C@@]1(C)C(=O)[C@H](OC(=O)C3CC3)C3=C(C)[C@@H](OC(=O)[C@H](O)[C@@H](NC(=O)OCC(C)C)c4ccco4)C[C@@](O)([C@@H](OC(=O)c4ccccc4)C12)C3(C)C (stereo partly drawn) [Compound 3102],IC50,[1]; Homo sapiens,1.2 nM
same,toxicity profile,[2],favorable toxicity profile
same,IC50,[3]; Homo sapiens,1.8 nM
same,IC50,[4]; Homo sapiens,2.6 nM
same,Logrank Test Chi square,[5]; IV Q4D × 4 30 mg/kg vs 5% EC in Saline PO Q4D × 4,5.459
same,Logrank Test Chi square,[5]; PO Q4D × 4 50 mg/kg vs 5% EC in Saline PO Q4D × 4,1.972
same,Logrank Test Chi square,[5]; PO Q4D × 4 70 mg/kg vs 5% EC in Saline PO Q4D × 4,0.2502
same,Logrank Test Chi square,[5]; PO Q4D × 4 80 mg/kg vs 5% EC in Saline PO Q4D × 4,5.234
same,treatment related death,[6],One
same,MDS to 2.0 g ± SEM (n),[7]; 30 mg/kg IV Q4D × 4,45.3 ± 4.6
same,MDS to 2.0 g ± SEM (n),[7]; 50 mg/kg PO Q4D × 4,47.1 ± 3.9
same,MDS to 2.0 g ± SEM (n),[7]; 70 mg/kg PO Q4D × 4,46.1 ± 3.5
same,MDS to 2.0 g ± SEM (n),[7]; 80 mg/kg PO Q4D × 4,53.8±
same,IC50,[8]; Homo sapiens,1.9 nM
same,IC50,[9]; [15],1.6 nM
same,potency compared to that of paclitaxel,[10]; 1A9-PTX22 (sentence covers 1A9-PTX10 and 1A9-PTX22),4 to 8 fold
same,IC50,"[10]; Homo sapiens, 1A9/ptx-22",8.5 nM
same,potency compared to that of paclitaxel,[11]; 1A9-PTX10 (sentence covers 1A9-PTX10 and 1A9-PTX22),4 to 8 fold
same,IC50,"[11]; Homo sapiens, 1A9/ptx-10",5.2 nM
same,Apoptotic (percentage of cells in sub G1 peak),[12]; 10 nM,24.4%
same,G1 (percentage of cells),[12]; 10 nM,20.1%
same,G2/M (percentage of cells),[12]; 10 nM,27.3%
same,S (percentage of cells),[12]; 10 nM,23.9%
same,Apoptotic (percentage of cells in sub G1 peak),[12]; 100 nM,11.7%
same,G1 (percentage of cells),[12]; 100 nM,7.0%
same,G2/M (percentage of cells),[12]; 100 nM,74.0%
same,S (percentage of cells),[12]; 100 nM,7.1%
same,IC50,[13]; Homo sapiens,1.8 nM
same,IC50,[14]; Homo sapiens,0.9 nM
"CC(=O)O[C@H]1C(=O)[C@@]2(C)[C@H]([C@H](OC(=O)c3ccccc3)[C@]3(O)C[C@H](OC(=O)[C@H](O)[C@@H](NC(=O)c4ccccc4)c4ccccc4)C(C)=C1C3(C)C)[C@]1(OC(C)=O)CO[C@@H]1C[C@@H]2O [Paclitaxel, paclitaxel]",IC50,[1]; Homo sapiens,2.6 nM
same,IC50,[3]; Homo sapiens,4.2 nM
same,IC50,[4]; Homo sapiens,3.1 nM
same,"slowing of tumor growth vs control (statistical analysis, words)","[5]; 786-0 e89, optimum dose, route (IV) and schedule",did not appear to significantly slow the growth of tumors compared to control
same,Logrank Test Chi square,[5]; IV QOD × 5 30 mg/kg vs 5% EC in Saline PO Q4D × 4,3.414
same,# Death NTR (Non-Treatment Related),"[5]; mouse, in vivo",0
same,# Death TR (Treatment Related),"[5]; mouse, in vivo",0
same,Day of Max. % BW Loss,"[5]; mouse, in vivo",Day 13
same,MDS to 2.0 g ± SEM (n),"[5]; mouse, in vivo",40.0 ± 6.6
same,Max. % BW Loss,"[5]; mouse, in vivo",−7.6%;
same,Are the survival curves sig different?,"[5]; mouse, in vivo, 30 mg/kg",No
same,Median survival,"[5]; mouse, in vivo, 30 mg/kg",51.15
same,# Death NTR (Non-Treatment Related),[6],0
same,# Death TR (Treatment Related),[6],0
same,MDS to 2.0 g ± SEM (n),[6],26.2 ± 3.0
same,controlling tumor growth compared to the lower doses of compound 3102,[6],as effective or slightly less effective in controlling tumor growth
same,MDS to 2.0 g ± SEM (n),[7]; 30 mg/kg IV QOD × 5,40.2 ± 4.7
same,antitumor activity,[7],failed to demonstrate significant antitumor activity against DLD-1 tumors
same,# Death NTR (Non-Treatment Related),[7],0
same,# Death TR (Treatment Related),[7]; nude,0
same,IC50,[8]; Homo sapiens,> 10 nM
same,IC50,[9]; [15],2.5 nM
same,IC50,"[10]; Homo sapiens, 1A9/ptx-22",> 30 nM
same,IC50,"[11]; Homo sapiens, 1A9/ptx-10",> 40 nM
same,Apoptotic (percentage of cells in sub G1 peak),[12]; 10 nM,24.0%
same,G1 (percentage of cells),[12]; 10 nM,31.1%
same,G2/M (percentage of cells),[12]; 10 nM,17.8%
same,S (percentage of cells),[12]; 10 nM,25.0%
same,Apoptotic (percentage of cells in sub G1 peak),[12]; 100 nM,15.3%
same,G1 (percentage of cells),[12]; 100 nM,7.0%
same,G2/M (percentage of cells),[12]; 100 nM,67.2%
same,S (percentage of cells),[12]; 100 nM,9.4%
same,IC50,[13]; Homo sapiens,4.1 nM
docetaxel,IC50,[1],1.2 nM
same,IC50,[3],2 nM
same,IC50,[4],1.9 nM
same,Hazard Ratio,[5]; [16],2.967
same,Logrank Test Chi square,[5]; [16],4.859
same,Hazard Ratio,[5]; [17],3.39
same,Logrank Test Chi square,[5]; [17],5.271
same,# Death TR (Treatment Related),"[5]; mouse, in vivo",0
same,MDS to 2.0 g ± SEM (n),"[5]; mouse, in vivo",52.1 ± 4.7 and 49.3 ± 4.3
same,"slowing of tumor growth vs vehicle control (statistical analysis, words)","[5]; mouse, in vivo",able to slow 786-0 tumor growth compared to the vehicle control
same,Are the survival curves sig different?,"[5]; mouse, in vivo, 25 mg/kg",Yes
same,Are the survival curves sig different?,"[5]; mouse, in vivo, 30 mg/kg",Yes
same,Median survival,"[5]; mouse, in vivo, 25 mg/kg",52.7
same,Median survival Ratio,"[5]; mouse, in vivo, 25 mg/kg",0.704
same,Median survival,"[5]; mouse, in vivo, 30 mg/kg",52
same,Median survival Ratio,"[5]; mouse, in vivo, 30 mg/kg",0.7135
same,MDS to 2.0 g ± SEM (n),[6],29.0 ± 7.8 and 32.4 ± 4.1
same,non-treatment related death,[6],one
same,non-treatment related deaths,[6],two
same,treatment related death,[6],one
same,controlling tumor growth compared to the lower doses of compound 3102,[6],as effective or slightly less effective in controlling tumor growth
same,MDS to 2.0 g ± SEM (n),[7]; 25 mg/kg IV Q7D × 3,35.0 ± 2.3
same,MDS to 2.0 g ± SEM (n),[7]; 30 mg/kg IV Q7D × 3,37.6 ± 6.5
same,antitumor activity,[7],failed to demonstrate significant antitumor activity against DLD-1 tumors
same,# Death NTR (Non-Treatment Related),[7],0
same,# Death TR (Treatment Related),[7],0
same,IC50,[8],9.2 nM
same,IC50,[9],1.8 nM
same,IC50,[10],8.5 nM
same,IC50,[11],7 nM
same,Apoptotic (percentage of cells in sub G1 peak),[12]; 10 nM,44.1%
same,G1 (percentage of cells),[12]; 10 nM,10.4%
same,G2/M (percentage of cells),[12]; 10 nM,17.1%
same,S (percentage of cells),[12]; 10 nM,25.4%
same,Apoptotic (percentage of cells in sub G1 peak),[12]; 100 nM,14.4%
same,G1 (percentage of cells),[12]; 100 nM,4.0%
same,G2/M (percentage of cells),[12]; 100 nM,68.0%
same,S (percentage of cells),[12]; 100 nM,11.6%
same,IC50,[13],2.8 nM
same,IC50,[14],0.9 nM
